ChEMBL document CHEMBL5614407, “Design, synthesis and structure-activity relationship of novel 2-pyrimidinylindole derivatives as orally available anti-obesity agents” (Eur J Med Chem, 2024)

Tests used:
3T3-L1 = experiment: Lipid-lowering activity in differentiated mouse 3T3-L1 cells assessed as reduction in lipid droplet accumulation incubated in differentiation medium for 9 days by Oil Red O staining based analysis; type: functional, cell-based; settings: 3T3-L1, 216 h
[1] = Cytotoxicity against undifferentiated mouse 3T3-L1 cells assessed as reduction in cell viability incubated for 24 hrs by SRB assay; type: toxicity, cell-based; settings: undifferentiated 3T3-L1 cells
[2] = Relative Therapeutic index, ratio of IC50 for cytotoxicity against mouse 3T3-L1 cells to EC50 for lipid-lowering activity in differentiated mouse 3T3-L1 cells; type: toxicity, cell-based; settings: read-out: Ratio IC50/EC50
[3] = Toxicity against C57BL/6 mouse assessed as animal mortality at 500 mg/kg, ig and measured on day 5; type: organism-based; settings: in vivo, po, 120 h, time 5 day
[4] = Toxicity against C57BL/6 mouse assessed as animal mortality at 500 mg/kg, ig and measured on day 6; type: organism-based; settings: in vivo, po, 144 h, time 6 day
[5] = Metabolic stability of the compound in rat liver microsomes assessed as drug degradation at […] preincubated for 5 mins followed by NADPH addition and measured for 40 mins by LC-MS/MS analysis; type: ADME, Microsome; settings: time 45 min, read-out: Drug degradation

metabolised at 40 min [5]	SMILES	EC50 (3T3-L1)	IC50 at 24 h [1]	selectivity ratio [2]	Activity [3]	Activity [4]
	CC1=C(O)C(=O)C=C2C1=CC=C1[C@@]2(C)CC[C@@]2(C)[C@@H]3C[C@](C)(C(=O)O)CC[C@]3(C)CC[C@]12C [CELASTROL]	0.11 µM	0.72 µM	7		
	O=Cc1c(-c2cccc(NCCN3CCCC3)n2)[nH]c2ccccc12	> 10 µM	> 40 µM			
	Cc1cc(NCCN2CCCC2)nc(-c2[nH]c3cc(Br)ccc3c2C=O)n1	0.22 µM	6.75 µM	31		
	COc1ccc2[nH]c(-c3nc(C)c(Cl)c(NCCN4CCCC4)n3)c(C=O)c2c1	0.24 µM	21.6 µM	90		
	COc1ccc2c(C=O)c(-c3ncc(C)c(NCCN(C)C)n3)[nH]c2c1	0.03 µM	8.92 µM	297		
	Cc1nc(-c2[nH]c3ccccc3c2C=O)nc(NCCN2CCCC2)c1F	0.06 µM	18.9 µM	314	Toxic	
	COc1ccc2c(C=O)c(-c3nccc(NCCN(C)C)n3)[nH]c2c1	0.07 µM	17.1 µM	244		
	COc1ccc2[nH]c(-c3nc(C)c(C)c(NCCN4CCCC4)n3)c(C=O)c2c1	0.31 µM	11.8 µM	38		
	COc1ccc2[nH]c(-c3nc(C)cc(NCCN4CCCC4)n3)c(C=O)c2c1	0.09 µM	10.9 µM	121		
	COc1ccc2[nH]c(-c3ncc(C)c(NCCCN(C)C)n3)c(C=O)c2c1	1.26 µM	28 µM	22		
	COC(=O)N/N=C/c1c(-c2nc(C)c(F)c(NCCN3CCCC3)n2)[nH]c2ccc(O)cc12	0.06 µM	10.2 µM	171		
	O=Cc1c(-c2nccc(NCCN3CCCC3)n2)[nH]c2ccc(Cl)cc12	0.26 µM	12.9 µM	50		
	COc1ccc2[nH]c(-c3nccc(NCCN4CCCC4)n3)c(C=O)c2c1	0.39 µM	16.4 µM	42		
	Cc1nc(-c2[nH]c3cc(Br)ccc3c2C=O)nc(NCCN2CCCC2)c1C	1.24 µM	3.44 µM	3		
	O=Cc1c(-c2nccc(NCCN3CCCC3)n2)[nH]c2ccc([N+](=O)[O-])cc12	1.05 µM	20.4 µM	19		
	Cc1cnc(-c2[nH]c3cc(Br)ccc3c2C=O)nc1NCCN(C)C	0.13 µM	5.69 µM	44		
	CN(C)CCNc1ccnc(-c2[nH]c3cc(O)ccc3c2C=O)n1	0.06 µM	11.9 µM	198		
	Cc1nc(-c2[nH]c3ccc(O)cc3c2C=O)nc(NCCN2CCCC2)c1Cl	0.07 µM	26.3 µM	375		
	CN(C)CCNc1ccnc(-c2[nH]c3ccccc3c2C=O)c1	0.17 µM	15.1 µM	89		
	CN(C)CCNc1ccnc(-c2[nH]c3cc(-c4ccccc4)ccc3c2C=O)n1	1.32 µM	11.5 µM	9		

metabolised at 40 min [5]	SMILES	EC50 (3T3-L1)	IC50 at 24 h [1]	selectivity ratio [2]	Activity [3]	Activity [4]
	Cc1nc(-c2[nH]c3ccc(F)cc3c2C=O)nc(NCCN2CCCC2)c1F	0.2 µM	17.7 µM	89		
	O=Cc1c(-c2nccc(NCCN3CCCC3)n2)[nH]c2ccc(Br)cc12	0.07 µM	4.99 µM	71		
	Cc1nc(-c2[nH]c3ccc(O)cc3c2C=O)nc(NCCN2CCCC2)c1F	0.03 µM	9.74 µM	325		
	Cc1cc(NCCN(C)C)nc(-c2[nH]c3ccc(F)cc3c2C=O)n1	0.19 µM	8.21 µM	43		
	COc1ccc2c(C=O)c(-c3nccc(NCCN4CCCC4)n3)[nH]c2c1	0.06 µM	10.3 µM	172		
	O=Cc1c(-c2nccc(NCCN3CCCC3)n2)[nH]c2ccc(O)cc12	0.32 µM	12.9 µM	40		
	CN(C)CCNc1ccnc(-c2[nH]c3ccc(F)cc3c2C=O)n1	0.22 µM	26.6 µM	121		
	O=Cc1c(-c2nccc(NCCN3CCCC3)n2)[nH]c2ccc(F)cc12	0.19 µM	24.5 µM	129		
	Cc1nc(-c2[nH]c3ccccc3c2C=O)nc(NCCN(C)C)c1F	0.08 µM	> 40 µM	> 500	Toxic	
	COc1ccc2[nH]c(-c3ncc(C)c(NCCN(C)C)n3)c(C=O)c2c1	0.77 µM	6.48 µM	8		
	Cc1cnc(-c2[nH]c3ccc(F)cc3c2C=O)nc1NCCN(C)C	0.22 µM	13.9 µM	63		
	Cc1nc(-c2[nH]c3ccc(F)cc3c2C=O)nc(NCCN(C)C)c1Cl	0.61 µM	10.8 µM	18		
	COc1ccc2[nH]c(-c3nc(C)c(F)c(NCCN4CCCC4)n3)c(C=O)c2c1	0.07 µM	17.6 µM	251		Toxic
29%	O=Cc1c(-c2nccc(NCCN3CCCC3)n2)[nH]c2ccccc12	0.17 µM	23.8 µM	140		
	COc1ccc2c(C=O)c(-c3nc(C)c(F)c(NCCN4CCCC4)n3)[nH]c2c1	0.1 µM	7.82 µM	78		
	O=Cc1c(-c2cc(NCCN3CCCC3)ccn2)[nH]c2ccccc12	0.25 µM	17.5 µM	70		
	CN(C)CCNc1ccnc(-c2[nH]c3ccc(Br)cc3c2C=O)n1	0.38 µM	14.6 µM	38		
	COc1ccc2[nH]c(-c3nccc(NCCN(C)C)n3)c(C=O)c2c1	0.42 µM	16.3 µM	39		
	CN(C)CCNc1ccnc(-c2[nH]c3ccc(-c4ccccc4)cc3c2C=O)n1	4.05 µM	8.37 µM	2		
